Test results: patent publication US20160032404A1, “BIOMARKERS FOR PREDICTING RESPONSE OF DLBCL TO TREATMENT WITH A BTK INHIBITOR” (Pharmacyclics LLC, priority 2014, published 2016)

Tested on: TMD8-resistant cells
Test: CellTiter-Glo luminescent cell viability assay, TMD8-resistant versus TMD8-WT cells
Type: cell-based
Conditions: ABT-199 for 3 days

CC1(C)CCC(CN2CCN(c3ccc(C(=O)NS(=O)(=O)c4ccc(NCC5CCOCC5)c([N+](=O)[O-])c4)c(Oc4cnc5[nH]ccc5c4)c3)CC2)=C(c2ccc(Cl)cc2)C1 [ABT-199]
sensitivity to drug (effect on cell growth) compared to TMD8-WT cells: more sensitive
